This series deals with CCRIS mutagenicity, Ames/micronucleus/aberration tests. In words: CCRIS mutagenicity studies.
Setting [1] is: Test System: AMES SALMONELLA TYPHIMURIUM, Strain/Indicator: TA98, Metabolic Activation: NONE, Method: PREINCUBATION
Where [2] appears, read: Test System: AMES SALMONELLA TYPHIMURIUM, Strain/Indicator: TA100, Metabolic Activation: NONE, Method: PREINCUBATION
The mark [3] stands for this setting: Test System: AMES SALMONELLA TYPHIMURIUM, Strain/Indicator: TA1535, Metabolic Activation: NONE, Method: PREINCUBATION
The mark [4] stands for this setting: Test System: AMES SALMONELLA TYPHIMURIUM, Strain/Indicator: TA100, Metabolic Activation: NONE, Method: STANDARD PLATE.
Where [5] appears, read: Test System: AMES SALMONELLA TYPHIMURIUM, Strain/Indicator: TA100, Metabolic Activation: RAT, LIVER, S-9, AROCLOR 1254, Method: STANDARD PLATE.
Where [6] appears, read: Test System: AMES SALMONELLA TYPHIMURIUM, Strain/Indicator: TA102, Metabolic Activation: NONE, Method: STANDARD PLATE.
Setting [7] is: Test System: AMES SALMONELLA TYPHIMURIUM, Strain/Indicator: TA102, Metabolic Activation: RAT, LIVER, S-9, AROCLOR 1254, Method: STANDARD PLATE.

Calls of active or inactive are those of the source. How the calls were made is not given here.

For `O=C1OC(CN2CCOCC2)CN1/N=C/c1ccc([N+](=O)[O-])o1` (stereo not drawn), the mutagenic call was “active; positive” (Test System: E. COLI, Strain/Indicator: WP2, Metabolic Activation: NONE, Method: SPOT); “active; positive” (Test System: E. COLI, Strain/Indicator: WP2 UVRA, Metabolic Activation: NONE, Method: SPOT); “active; positive” (Test System: E. COLI, Strain/Indicator: WP2 UVRA, Metabolic Activation: NONE, Method: STANDARD PLATE).
Turning to `O=P(O)(O)OP(=O)(O)OP(=O)(O)O`, the mutagenic call reads like this: under setting [1], “inactive; negative”; (Test System: AMES SALMONELLA TYPHIMURIUM, Strain/Indicator: TA98, Metabolic Activation: RAT, LIVER, S-9, KC 500, Method: PREINCUBATION) “inactive; negative”; under setting [2], “inactive; negative”; (Test System: AMES SALMONELLA TYPHIMURIUM, Strain/Indicator: TA100, Metabolic Activation: RAT, LIVER, S-9, KC 500, Method: PREINCUBATION) “inactive; negative”; under setting [3], “inactive; negative”; (Test System: AMES SALMONELLA TYPHIMURIUM, Strain/Indicator: TA1535, Metabolic Activation: RAT, LIVER, S-9, KC 500, Method: PREINCUBATION) “inactive; negative”. Besides, the mutagenic call is “inactive; negative” (Test System: AMES SALMONELLA TYPHIMURIUM, Strain/Indicator: TA1537, Metabolic Activation: NONE, Method: PREINCUBATION); “inactive; negative” (Test System: AMES SALMONELLA TYPHIMURIUM, Strain/Indicator: TA1537, Metabolic Activation: RAT, LIVER, S-9, KC 500, Method: PREINCUBATION); “inactive; negative” (Test System: AMES SALMONELLA TYPHIMURIUM, Strain/Indicator: TA1538, Metabolic Activation: NONE, Method: PREINCUBATION); “inactive; negative” (Test System: AMES SALMONELLA TYPHIMURIUM, Strain/Indicator: TA1538, Metabolic Activation: RAT, LIVER, S-9, KC 500, Method: PREINCUBATION); “inactive; negative” (Test System: E. COLI, Strain/Indicator: WP2 UVRA, Metabolic Activation: NONE, Method: PREINCUBATION); “inactive; negative” (Test System: E. COLI, Strain/Indicator: WP2 UVRA, Metabolic Activation: RAT, LIVER, S-9, KC 500, Method: PREINCUBATION).
Regarding `CC(C)CCC[C@@H](C)[C@H]1CC[C@H]2[C@@H]3CC=C4CCCC[C@]4(C)[C@H]3CC[C@]12C`, the mutagenic call by setting is: (Test System: AMES SALMONELLA TYPHIMURIUM, Strain/Indicator: TA97A, Metabolic Activation: NONE, Method: STANDARD PLATE) “inactive; negative”; (Test System: AMES SALMONELLA TYPHIMURIUM, Strain/Indicator: TA97A, Metabolic Activation: RAT, LIVER, S-9, AROCLOR 1254, Method: STANDARD PLATE) “inactive; negative”; under setting [4], “inactive; negative”; under setting [5], “inactive; negative”; under setting [6], “inactive; negative”; under setting [7], “inactive; negative”. Also, the mutagenic call by setting is: (Test System: AMES SALMONELLA TYPHIMURIUM, Strain/Indicator: TA104, Metabolic Activation: NONE, Method: STANDARD PLATE) “inactive; negative”; (Test System: AMES SALMONELLA TYPHIMURIUM, Strain/Indicator: TA104, Metabolic Activation: RAT, LIVER, S-9, AROCLOR 1254, Method: STANDARD PLATE) “inactive; negative”.
Turning to `CC(C)(C)OOC(C)(C)CCC(C)(C)OOC(C)(C)C`, the mutagenic call by setting is: (Test System: AMES SALMONELLA TYPHIMURIUM, Strain/Indicator: TA97, Metabolic Activation: HAMSTER, LIVER, S-9, AROCLOR 1254 (10 OR 30%), Method: PREINCUBATION) “inactive; negative”; (Test System: AMES SALMONELLA TYPHIMURIUM, Strain/Indicator: TA97, Metabolic Activation: NONE, Method: PREINCUBATION) “inactive; negative”; (Test System: AMES SALMONELLA TYPHIMURIUM, Strain/Indicator: TA97, Metabolic Activation: RAT, LIVER, S-9, AROCLOR 1254 (10 OR 30%), Method: PREINCUBATION) “inactive; negative”; (Test System: AMES SALMONELLA TYPHIMURIUM, Strain/Indicator: TA98, Metabolic Activation: HAMSTER, LIVER, S-9, AROCLOR 1254 (10 OR 30%), Method: PREINCUBATION) “inactive; negative”; under setting [1], “inactive; negative”; (Test System: AMES SALMONELLA TYPHIMURIUM, Strain/Indicator: TA98, Metabolic Activation: RAT, LIVER, S-9, AROCLOR 1254 (10 OR 30%), Method: PREINCUBATION) “inactive; negative”. Further, the mutagenic call (Test System: AMES SALMONELLA TYPHIMURIUM, Strain/Indicator: TA100, Metabolic Activation: HAMSTER, LIVER, S-9, AROCLOR 1254 (10 OR 30%), Method: PREINCUBATION) is “inactive; negative”; the mutagenic call under setting [2] is “inactive; negative”; the mutagenic call (Test System: AMES SALMONELLA TYPHIMURIUM, Strain/Indicator: TA100, Metabolic Activation: RAT, LIVER, S-9, AROCLOR 1254 (10 OR 30%), Method: PREINCUBATION) is “inactive; negative”; the mutagenic call (Test System: AMES SALMONELLA TYPHIMURIUM, Strain/Indicator: TA1535, Metabolic Activation: HAMSTER, LIVER, S-9, AROCLOR 1254 (10 OR 30%), Method: PREINCUBATION) was “inactive; negative”; the mutagenic call under setting [3] was “inactive; negative”; the mutagenic call (Test System: AMES SALMONELLA TYPHIMURIUM, Strain/Indicator: TA1535, Metabolic Activation: RAT, LIVER, S-9, AROCLOR 1254 (10 OR 30%), Method: PREINCUBATION) was “inactive; negative”.
Consider `Clc1ccc(Cl)nc1`, for which the mutagenic call is, setting by setting: (Test System: AMES SALMONELLA TYPHIMURIUM, Strain/Indicator: TA97, Metabolic Activation: NONE, Method: STANDARD PLATE) “inactive; negative”; (Test System: AMES SALMONELLA TYPHIMURIUM, Strain/Indicator: TA97, Metabolic Activation: RAT, LIVER, S-9, AROCLOR 1254, Method: STANDARD PLATE) “inactive; negative”; (Test System: AMES SALMONELLA TYPHIMURIUM, Strain/Indicator: TA98, Metabolic Activation: NONE, Method: STANDARD PLATE) “inactive; negative”; (Test System: AMES SALMONELLA TYPHIMURIUM, Strain/Indicator: TA98, Metabolic Activation: RAT, LIVER, S-9, AROCLOR 1254, Method: STANDARD PLATE) “inactive; negative”; under setting [4], “inactive; negative”; under setting [5], “inactive; negative”. For the same compound, the mutagenic call runs as follows: under setting [6], “inactive; negative”; under setting [7], “inactive; negative”.

(Values after PubChem BioAssay AID1259407 (Chemical Carcinogenesis Research Information System (CCRIS), 2018).)
